Results published in ChEMBL document CHEMBL1130811, “An enantioselective fluorimetric assay for alcohol dehydrogenases using albumin-catalyzed beta-elimination of umbelliferone” (Bioorg Med Chem Lett, 1998).

Tests used:
[1] = Michaelis-Menten kinetics of the bovine serum albumin catalyzed reaction of the compound; format: ADME, Bos taurus; settings: cattle
[2] = Specificity constant of the bovine serum albumin catalyzed reaction expressed as (kcat/KM)/kuncat; format: ADME, Bos taurus; settings: cattle
[3] = Half life in presence of 2 mg/mL BSA at pH 8.8; format: ADME, Bos taurus; settings: cattle, bovine serum albumin solution
[4] = Rate constant of the bovine serum albumin catalyzed reaction of the compound; format: ADME, Bos taurus; settings: cattle
[5] = Specificity constant of the BSA-catalyzed deprotonation of compound at pH 9; format: ADME, Bos taurus; settings: cattle
[6] = system: alcohol dehydrogenase (Saccharomyces cerevisiae); experiment: Compound was tested for enantioselectivity of alcohol dehydrogenase in yeast at a concentration of 100 ug/mL.
[7] = biological target: Alcohol dehydrogenase (Equus caballus) (UniProt P00327+P00328); experiment: Compound was tested for enantioselectivity of alcohol dehydrogenase in horse liver at a concentration of 10 ug/mL.
[8] = system: alcohol dehydrogenase (Lactobacillus kefiri); experiment: Compound was tested for enantioselectivity of alcohol dehydrogenase in lactobacillus kefir at a concentration of 50 ug/mL.
[9] = system: alcohol dehydrogenase (Thermoanaerobacter brockii); experiment: Compound was tested for enantioselectivity of alcohol dehydrogenase in thermoanaerobium brockii at a concentration of 5 ug/mL.

With `CC(=O)CCOc1ccc2ccc(=O)oc2c1` the Km [1] was 150 µM, the “(kcat/KM)/kuncat” value [2] was 2600000 M⁻¹ and the half-life [3] was 4 min. For the same compound, the k cat [4] was 0.0078 s⁻¹ and the “k cat/Kuncat” value [4] was 390.

In the case of `c1cnoc1` [ISOXAZOLE], the “(kcat/KM)/kuncat” value [5] is reported as 3600000 M⁻¹.

`C[C@@H](O)CCOc1ccc2ccc(=O)oc2c1` gave a Selectivity [6] of 3.31e-06 µM/s, a Selectivity [7] of 0.00014 µM/s and a Selectivity [8] of 0.000773 µM/s. For the same compound, the Selectivity [9] was 6.61e-06 µM/s.

In the case of `C[C@H](O)CCOc1ccc2ccc(=O)oc2c1`, the Selectivity [6] is reported as 0.000599 µM/s, the Selectivity [7] is reported as 0.00246 µM/s and the Selectivity [8] is reported as 2.67e-05 µM/s. The Selectivity [9] was 0.00132 µM/s.
